Assay results taken from article PMC7953584, “An Experimental Study on [^125I]I-pHLIP (Var7) for SPECT/CT Imaging of an MDA-MB-231 Triple-Negative Breast Cancer Mouse Model by Targeting the Tumor Microenvironment” (Molecular Imaging, 2021).
Where two headings read alike, the source gives them in different places. Residues, ends and D or L forms follow the SMILES beside them.

Assays:
[1] = In vitro stability in mouse serum at 37°C (radiochemical purity); type: in vitro ADME; conditions: 50 μL probe + 100 μL serum, paper chromatography, mean ± SD
Procedure: The purity of [^125I]I-pHLIP (Var7) was determined by paper chromatography. Normal saline was used as the developing agent, and Xinhua Grade 1 chromatography paper was used as the stationary phase. An appropriate amount of [^125I]I-pHLIP (Var7) eluent was aspirated by a capillary pipette and spotted at the origin of the chromatographic filter paper. After drying, the paper was placed vertically into a test tube containing the developing agent; the unfolded chromatographic filter paper was removed, air dried, and cut at intervals of 1 cm. The radioactivity count was measured segment by segment to calculate the radiochemical purity.
The purified [^125I]I-pHLIP (Var7) was placed at 4°C, at room temperature (25°C) in PBS buffer, and at 37°C in mouse serum. The radiochemical purity at different time points was measured, and the stability was determined. • Two hundred microliters of purified [^125I]I-pHLIP (Var7) solution was placed at 4°C and at room temperature in PBS buffer. Radiochemical purity was determined immediately after purification and at 1, 2, 4, 8, and 24 h after purification • Fifty microliters of purified [^125I]I-pHLIP (Var7) solution was mixed with 100 μL of mouse serum and placed in a 37°C water bath. Radiochemical purity was determined immediately after mixing and at 1, 2, 4, 8, and 24 h after mixing

[2] = Biodistribution in tumor-bearing nude mice; type: in vivo; conditions: female, BALB/c nude, mouse, iv, 1480 kBq/200 uL, total radioactivity, ~1480 kBq/200 μL tail vein, mean ± SD, n = 3; for tissue uptake at 0.5 h: 0.5 h after injection; for tissue uptake at 1 h: 1 h after injection; for tissue uptake at 2 h: 2 h after injection; for tissue uptake at 4 h: 4 h after injection; for tissue uptake at 8 h: 8 h after injection
Procedure: (§1) A mouse model bearing a human breast cancer cell line, MDA-MB-231, was established. MDA-MB-231 cells were cultured using the conventional method. Cells were collected at the logarithmic growth phase and washed once with PBS. The cells were then diluted to prepare suspensions at a concentration of approximately 1 × 10^6 cells/mL, which were temporarily stored in an ice box. Female 4-week-old BALB/c nude mice (16-20 g) were selected. MDA-MB-231 cells were inoculated subcutaneously using a disposable insulin syringe inserted into the right lateral thighs of the nude mice. The number of inoculated cells in each nude mouse was approximately 0.1 mL. The nude mice were raised under specific pathogen-free (SPF) conditions.
Biodistribution experiments were conducted when the tumor diameter was 0.8-1.0 cm. Purified [^125I]I-pHLIP (Var7) was diluted with PBS, and a total of 15 tumor-bearing nude mice with no significant differences in tumor size were randomly divided into five cohorts. Nude mice in each cohort were injected with [^125I]I-pHLIP (Var7) at approximately 1480 kBq/200 μL through the tail vein. At 0.5, 1, 2, 4, and 8 h after injection, blood was collected from the orbital sinus. The mice were sacrificed, and tissues and organs, including the heart, liver, spleen, lung, kidney, pancreas, stomach, small intestine, bladder, thyroid, brain, bone, muscle, and tumors, were collected and weighed. The radioactive count was measured, and the results were converted to %ID/g.

[3] = test system: MDA-MB-231 tumor-bearing mice; assay: Small-animal SPECT/CT imaging; type: in vivo, BALB/c nude mice; conditions: 1 and 2 h after injection; 3.7 MBq/200 μL tail vein; thyroid blocked with 0.1% KI
Procedure: as §1
Imaging was started when the diameter of the tumor grew to 0.8-1.0 cm. Three days before imaging, 3 nude mice began to drink 0.1% KI solution to block the thyroid gland until the end of the experiment. • The machine was calibrated daily • Anesthesia Induction. […] Imaging settings for the SPECT/CT and reconstruction are as follows: the time per frame was 10 min, voxel size was 0.8 mm, number of subsets was 32, and number of iterations was 15 • The injection time, injection dose, and residual dose were recorded according to the tables in the experiment

[4] = bladder, read-out: distribution in bladder
[5] = blood, read-out: distribution in blood
[6] = bone, read-out: distribution in bone
[7] = brain, read-out: distribution in brain
[8] = heart, read-out: distribution in heart
[9] = kidney, read-out: distribution in kidney
[10] = liver, read-out: distribution in liver
[11] = lung, read-out: distribution in lung
[12] = muscle, read-out: distribution in muscle
[13] = pancreas, read-out: distribution in pancreas
[14] = small intestine, read-out: distribution in small intestine
[15] = spleen, read-out: distribution in spleen
[16] = stomach, read-out: distribution in stomach
[17] = thyroid, read-out: distribution in thyroid
[18] = tumor (MDA-MB-231), MDA-MB-231 tumor, read-out: distribution in tumor

## CC(C)C[C@H](NC(=O)[C@H](CCC(=O)O)NC(=O)[C@H](CC(C)C)NC(=O)[C@H](CC(C)C)NC(=O)[C@H](CC(C)C)NC(=O)[C@@H](NC(=O)[C@H](CCC(=O)O)NC(=O)[C@@H](NC(=O)[C@@H]1CCCN1C(=O)[C@H](Cc1ccccc1)NC(=O)[C@H](CC(C)C)NC(=O)[C@H](Cc1c[nH]c2ccccc12)NC(=O)[C@H](CCC(=O)O)NC(=O)[C@H](CC(C)C)NC(=O)[C@H](Cc1ccc(O)c(I)c1)NC(=O)[C@H](CCCNC(=N)N)NC(=O)[C@H](C)NC(=O)[C@H](Cc1c[nH]c2ccccc12)NC(=O)[C@@H]1CCCN1C(=O)[C@H](CC(N)=O)NC(=O)[C@H](CCC(N)=O)NC(=O)[C@H](CCC(=O)O)NC(=O)[C@H](CCC(=O)O)NC(=O)[C@H](C)N)[C@@H](C)O)[C@@H](C)O)C(N)=O [[^125I]I-pHLIP (Var7)] (HELM PEPTIDE1{A.E.E.Q.N.P.W.A.R.[O=C([C@H](Cc1ccc(O)c(I)c1)N[*:1])[*:2]].L.E.W.L.F.P.T.E.T.L.L.L.E.L.[am]}$$$$V2.0)
[1]; 1 h
  probe stability in serum (radiochemical purity): 97.8 ± 1.9%
[1]; 2 h
  probe stability in serum (radiochemical purity): 96.8 ± 1.0%
[1]; 4 h
  probe stability in serum (radiochemical purity): 94.5 ± 1.1%
[1]; 8 h
  probe stability in serum (radiochemical purity): 91.3 ± 2.6%
[2]; [4]
  tissue uptake at 0.5 h: 3.8 ± 1.1 %ID/g
  tissue uptake at 1 h: 4.3 ± 1.1 %ID/g
  tissue uptake at 2 h: 2.1 ± 0.9 %ID/g
  tissue uptake at 4 h: 1 ± 0.6 %ID/g
  tissue uptake at 8 h: 0.5 ± 0.2 %ID/g
[2]; [5]
  tissue uptake at 0.5 h: 12 ± 1.5 %ID/g
  tissue uptake at 1 h: 6.5 ± 1.5 %ID/g
  tissue uptake at 2 h: 2.8 ± 0.6 %ID/g
  tissue uptake at 4 h: 1.2 ± 0.5 %ID/g
  tissue uptake at 8 h: 0.5 ± 0.1 %ID/g
[2]; [6]
  tissue uptake at 0.5 h: 2.9 ± 0.3 %ID/g
  tissue uptake at 1 h: 2.8 ± 0.1 %ID/g
  tissue uptake at 2 h: 1.5 ± 0.5 %ID/g
  tissue uptake at 4 h: 0.7 ± 0.2 %ID/g
  tissue uptake at 8 h: 0.2 ± 0.1 %ID/g
[2]; [7]
  tissue uptake at 0.5 h: 0.6 ± 0.1 %ID/g
  tissue uptake at 1 h: 0.5 ± 0.1 %ID/g
  tissue uptake at 2 h: 0.3 ± 0.1 %ID/g
  tissue uptake at 4 h: 0.1 ± 0.1 %ID/g
  tissue uptake at 8 h: 0.1 ± 0.1 %ID/g
[2]; [8]
  tissue uptake at 0.5 h: 4.1 ± 0.5 %ID/g
  tissue uptake at 1 h: 3.9 ± 0.7 %ID/g
  tissue uptake at 2 h: 2 ± 0.4 %ID/g
  tissue uptake at 4 h: 1.1 ± 1.1 %ID/g
  tissue uptake at 8 h: 0.5 ± 0.3 %ID/g
[2]; [9]
  tissue uptake at 0.5 h: 4.2 ± 0.6 %ID/g
  tissue uptake at 1 h: 5.1 ± 1.1 %ID/g
  tissue uptake at 2 h: 2.3 ± 0.8 %ID/g
  tissue uptake at 4 h: 1.2 ± 0.4 %ID/g
  tissue uptake at 8 h: 0.5 ± 0.2 %ID/g
[2]; [10]
  tissue uptake at 0.5 h: 13.9 ± 2.7 %ID/g
  tissue uptake at 1 h: 8 ± 1.9 %ID/g
  tissue uptake at 2 h: 4 ± 0.6 %ID/g
  tissue uptake at 4 h: 1.8 ± 0.2 %ID/g
  tissue uptake at 8 h: 0.7 ± 0.2 %ID/g
[2]; [11]
  tissue uptake at 0.5 h: 3.4 ± 1.2 %ID/g
  tissue uptake at 1 h: 2.5 ± 1 %ID/g
  tissue uptake at 2 h: 1.2 ± 0.5 %ID/g
  tissue uptake at 4 h: 0.5 ± 0.3 %ID/g
  tissue uptake at 8 h: 0.2 ± 0.1 %ID/g
[2]; [12]
  tissue uptake at 0.5 h: 1.7 ± 0.6 %ID/g
  tissue uptake at 1 h: 1.4 ± 0.8 %ID/g
  tissue uptake at 2 h: 0.6 ± 0.2 %ID/g
  tissue uptake at 4 h: 0.2 ± 0.1 %ID/g
  tissue uptake at 8 h: 0.1 ± 0.1 %ID/g
[2]; [13]
  tissue uptake at 0.5 h: 3.3 ± 0.8 %ID/g
  tissue uptake at 1 h: 4.1 ± 1.2 %ID/g
  tissue uptake at 2 h: 2.1 ± 0.6 %ID/g
  tissue uptake at 4 h: 0.9 ± 0.3 %ID/g
  tissue uptake at 8 h: 0.3 ± 0.1 %ID/g
[2]; [14]
  tissue uptake at 0.5 h: 3.3 ± 1.5 %ID/g
  tissue uptake at 1 h: 4.2 ± 0.6 %ID/g
  tissue uptake at 2 h: 2.8 ± 1 %ID/g
  tissue uptake at 4 h: 1.3 ± 0.5 %ID/g
  tissue uptake at 8 h: 0.4 ± 0.1 %ID/g
[2]; [15]
  tissue uptake at 0.5 h: 3 ± 1.1 %ID/g
  tissue uptake at 1 h: 3 ± 0.6 %ID/g
  tissue uptake at 2 h: 1.4 ± 0.4 %ID/g
  tissue uptake at 4 h: 0.7 ± 0.2 %ID/g
  tissue uptake at 8 h: 0.3 ± 0.1 %ID/g
[2]; [16]
  tissue uptake at 0.5 h: 4.7 ± 1.2 %ID/g
  tissue uptake at 1 h: 5.1 ± 1.2 %ID/g
  tissue uptake at 2 h: 4.3 ± 1 %ID/g
  tissue uptake at 4 h: 2.2 ± 0.8 %ID/g
  tissue uptake at 8 h: 0.7 ± 0.2 %ID/g
[2]; [17]
  tissue uptake at 0.5 h: 4.3 ± 1.7 %ID/g
  tissue uptake at 1 h: 5.6 ± 1.4 %ID/g
  tissue uptake at 2 h: 3.4 ± 1 %ID/g
  tissue uptake at 4 h: 1.6 ± 0.8 %ID/g
  tissue uptake at 8 h: 0.8 ± 0.4 %ID/g
[2]; [18]
  tissue uptake at 0.5 h: 3.6 ± 0.5 %ID/g
  tissue uptake at 1 h: 6.9 ± 0.4 %ID/g
  tissue uptake at 2 h: 3.6 ± 0.7 %ID/g
  tissue uptake at 4 h: 2 ± 0.6 %ID/g
  tissue uptake at 8 h: 1 ± 0.4 %ID/g
[3]
  tumor visibility on SPECT/CT: clearly visible tumors
